Test results published in US6887676B1 (priority 1999, dated 2005).

Experiments:
type 1 PrP^Sc [1] = target: T1, type 1 PrP^Sc (Homo sapiens, UniProt P04156); assay type: biochemical; conditions: FIGS. 3e and f; for ability of selective chelator to mirror the EDTA action on type 1 PrP^Sc cleavage: 20 mM chelator, N-ethylmorpholine buffer; for cleavage pattern of type 1 PrP^Sc digested in presence of copper-selective chelator: 20 mM, intermediate between type 1 and type 2^-
type 1 PrP^Sc [2] = target: T1, type 1 PrP^Sc; conditions: for effectiveness in maintaining type 1 PrP^Sc conformation: 30 μM metal ion; for effect of metal ion on electrophoretic mobility of metal-depleted, proteinase K digested type 1 PrP^Sc: exposure prior to and during electrophoresis, FIG. 4b; for digestion products of type 1 PrP^Sc washed in maintained presence of metal ion: total concentrations observed in serum, FIG. 4a; for concentration at which type 1 PrP^Sc conformation could be readily maintained: washing before PK digestion
amyloid Aβ protein = conditions: cited from earlier work
[3] = target: recombinant full length hamster PrP (Mesocricetus auratus, UniProt P04273); conditions: read-out: dissociation constant of Cu^2+ binding; cited from earlier work
recombinant full length hamster PrP, sequence (P04273 23-254 limits assumed): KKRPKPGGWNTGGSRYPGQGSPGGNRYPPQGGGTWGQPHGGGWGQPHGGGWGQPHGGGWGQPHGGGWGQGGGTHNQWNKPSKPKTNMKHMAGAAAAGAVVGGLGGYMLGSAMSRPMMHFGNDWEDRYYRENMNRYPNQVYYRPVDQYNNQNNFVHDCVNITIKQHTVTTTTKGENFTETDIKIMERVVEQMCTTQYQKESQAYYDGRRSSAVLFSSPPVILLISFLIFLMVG

type 2 PrP^Sc = type 2 PrP^Sc (Homo sapiens, UniProt P04156); conditions: different concentrations; FIG. 4d

Compound: c1cnc2c(c1)ccc1cccnc12 [1, 10 phenanthroline]
- ability of selective chelator to mirror the EDTA action on type 1 PrP^Sc cleavage (type 1 PrP^Sc [1]): unable to precisely mirror this action

Compound: [Cl-].[Cl-].[Co+2] [Co^2+]
- effectiveness in maintaining type 1 PrP^Sc conformation (type 1 PrP^Sc [2]; FIG. 4c): only Ni^2+ can effectively substitute
- cleavage pattern of type 1 PrP^Sc after washing and digestion with Co^2+ (type 1 PrP^Sc [2]; 30 μM, FIG. 4c): intermediate pattern
- induction of aggregation of Aβ protein (amyloid Aβ protein): also effective

Compound: O=S(=O)([O-])[O-].[Cu+2] [Cu^2+]
- cleavage pattern of type 1 PrP^Sc after washing and digestion with Cu^2+ (type 1 PrP^Sc [2]; 20 μM of range 10-25 μM, FIG. 4a lanes 6-8): migrated with a mobility similar to that of the type 2 products
- effect of metal ion on electrophoretic mobility of metal-depleted, proteinase K digested type 1 PrP^Sc (type 1 PrP^Sc [2]): had no effect
- digestion products of type 1 PrP^Sc washed in maintained presence of metal ion (type 1 PrP^Sc [2]): digestion products closely resembled those generated from untreated type 1 PrP^Sc
- concentration at which type 1 PrP^Sc conformation could be readily maintained (type 1 PrP^Sc [2]): higher concentrations of Cu^2+ were required
- Kd [3]: 14 µM
- digestion products of type 2 PrP^Sc washed in maintained presence of metal ion (type 2 PrP^Sc): either the original type 2 pattern of digestion products, or a new pattern of higher molecular mass cleavage fragments closely similar to those generated from untreated type 1 PrP^Sc
- induction of aggregation of Aβ protein (amyloid Aβ protein): able to induce aggregation of Aβ protein

Compound: O=C(O)CN(CCOCCOCCN(CC(=O)O)CC(=O)O)CC(=O)O [EGTA]
- ability of selective chelator to mirror the EDTA action on type 1 PrP^Sc cleavage (type 1 PrP^Sc [1]): unable to precisely mirror this action
- cleavage pattern of type 1 PrP^Sc digested in presence of copper-selective chelator (type 1 PrP^Sc [1]): intermediate pattern

Compound: [Cl][Mn][Cl] [Mn^2+]
- effectiveness in maintaining type 1 PrP^Sc conformation (type 1 PrP^Sc [2]; FIG. 4c): only Ni^2+ can effectively substitute

Compound: [Cl][Ni][Cl] [Ni^2+]
- effectiveness in maintaining type 1 PrP^Sc conformation (type 1 PrP^Sc [2]; FIG. 4c): can effectively substitute
- induction of aggregation of Aβ protein (amyloid Aβ protein): also effective

Compound: [Cl-].[Cl-].[Zn+2] [Zn^2+]
- effect of metal ion on electrophoretic mobility of metal-depleted, proteinase K digested type 1 PrP^Sc (type 1 PrP^Sc [2]): had no effect
- digestion products of type 1 PrP^Sc washed in maintained presence of metal ion (type 1 PrP^Sc [2]): digestion products closely resembled those generated from untreated type 1 PrP^Sc
- concentration at which type 1 PrP^Sc conformation could be readily maintained (type 1 PrP^Sc [2]): 10 µM
- digestion products of type 2 PrP^Sc washed in maintained presence of metal ion (type 2 PrP^Sc): either the original type 2 pattern of digestion products, or a new pattern of higher molecular mass cleavage fragments closely similar to those generated from untreated type 1 PrP^Sc
- induction of aggregation of Aβ protein (amyloid Aβ protein): able to induce aggregation of Aβ protein

Compound: O=S(=O)(O)c1ccc(-c2ccnc3c2ccc2c(-c4ccc(S(=O)(=O)O)cc4)ccnc23)cc1 [bathophenanthroline disulfonic acid]
- ability of selective chelator to mirror the EDTA action on type 1 PrP^Sc cleavage (type 1 PrP^Sc [1]): unable to precisely mirror this action

Compound: O=C(O)c1cccc(C(=O)O)n1 [dipicolinic acid]
- ability of selective chelator to mirror the EDTA action on type 1 PrP^Sc cleavage (type 1 PrP^Sc [1]): unable to precisely mirror this action

Compound: Cc1ccc2ccc3ccc(C)nc3c2n1 [neocuproine]
- ability of selective chelator to mirror the EDTA action on type 1 PrP^Sc cleavage (type 1 PrP^Sc [1]): unable to precisely mirror this action

Compound: NCCNCCNCCN [triethylenetetramine]
- ability of selective chelator to mirror the EDTA action on type 1 PrP^Sc cleavage (type 1 PrP^Sc [1]): unable to precisely mirror this action
- cleavage pattern of type 1 PrP^Sc digested in presence of copper-selective chelator (type 1 PrP^Sc [1]): intermediate pattern
